The values below come from patent US20240368135A1 (VERTEX PHARMACEUTICALS INCORPORATED, priority 2021, published 2024).

This test has as its target human NaV 1.8 (Homo sapiens, UniProt Q9Y5Y9). Nature of the test: E-VIPR assay detecting and measuring NaV inhibition properties. It counts as cell-based. As to conditions: HEK cells expressing truncated human NaV 1.8. In outline: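 HEK cells expressing truncated, fully active human NaV1.8, with KIR2.1 BacMam co-transduction, were loaded with CC2-DMPE/DiSBAC6(3) voltage-sensing dyes for 20 min at room temperature. Compounds were tested in 11-point 3-fold dilutions (300 nM top final), optionally with 25% human serum, under electrical stimulation with FRET read-out.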

Setting [1] is: no human serum, read-out: IC50 in the E-VIPR Assay.

Where two headings read alike, the source gives them in different places. Where only a bound is given, the exact number is not on record here.

Chain of human NaV 1.8 (Q9Y5Y9 126-399 limits assumed): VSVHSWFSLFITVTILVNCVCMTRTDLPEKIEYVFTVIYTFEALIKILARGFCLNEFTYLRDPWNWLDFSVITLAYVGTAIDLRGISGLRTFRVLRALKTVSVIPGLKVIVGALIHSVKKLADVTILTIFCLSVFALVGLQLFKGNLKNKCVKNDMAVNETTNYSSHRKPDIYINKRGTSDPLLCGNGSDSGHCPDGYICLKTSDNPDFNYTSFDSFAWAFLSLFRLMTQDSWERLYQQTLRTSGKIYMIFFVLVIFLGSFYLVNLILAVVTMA
Chain of human NaV 1.8 (Q9Y5Y9 660-890 limits assumed): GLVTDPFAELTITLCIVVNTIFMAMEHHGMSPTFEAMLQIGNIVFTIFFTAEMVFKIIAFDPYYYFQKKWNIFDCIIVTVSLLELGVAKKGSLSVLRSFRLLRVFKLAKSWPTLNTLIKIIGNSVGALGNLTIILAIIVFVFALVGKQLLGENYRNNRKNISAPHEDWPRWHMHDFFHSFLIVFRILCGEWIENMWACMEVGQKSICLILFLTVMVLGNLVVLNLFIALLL
Chain of human NaV 1.8 (Q9Y5Y9 1148-1722 limits assumed): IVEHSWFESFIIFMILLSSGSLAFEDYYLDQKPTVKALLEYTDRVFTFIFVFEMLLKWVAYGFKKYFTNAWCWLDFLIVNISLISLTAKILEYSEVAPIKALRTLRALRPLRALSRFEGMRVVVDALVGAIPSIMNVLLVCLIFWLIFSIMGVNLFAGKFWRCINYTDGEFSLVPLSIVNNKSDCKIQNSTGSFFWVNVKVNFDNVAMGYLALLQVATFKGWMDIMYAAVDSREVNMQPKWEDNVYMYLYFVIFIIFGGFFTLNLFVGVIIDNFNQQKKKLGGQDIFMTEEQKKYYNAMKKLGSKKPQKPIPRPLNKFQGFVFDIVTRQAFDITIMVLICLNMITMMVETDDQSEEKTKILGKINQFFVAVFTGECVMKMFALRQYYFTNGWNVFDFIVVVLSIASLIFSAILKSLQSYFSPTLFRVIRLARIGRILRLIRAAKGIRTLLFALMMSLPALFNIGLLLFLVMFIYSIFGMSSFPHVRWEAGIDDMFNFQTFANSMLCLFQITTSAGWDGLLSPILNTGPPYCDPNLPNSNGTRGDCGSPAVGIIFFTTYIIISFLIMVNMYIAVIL

Consider `COc1c([C@H]2[C@H](C(=O)NCC(=O)N3CCOCC3)O[C@@](C)(C(F)(F)F)[C@H]2C)ccc(F)c1F` [Compound 304, (2R,3S,4S,5R)-3-(3,4-difluoro-2-methoxyphenyl)-4,5-dimethyl-N-(2-morpholino-2-oxoethyl)-5-(trifluoromethyl)tetrahydrofuran-2-carboxamide], for which the IC50 under setting [1] was no less than 1000 nM.
In the case of `COc1c(C2C(C(=O)Nc3ccnc(S(C)(=O)=O)c3)OC(C)(C(F)(F)F)C2C)ccc(F)c1F` (single isomer, unassigned) [Compound 50, 3-(3,4-difluoro-2-methoxy-phenyl)-4,5-dimethyl-N-(2-methylsulfonyl-4-pyridyl)-5-(trifluoromethyl)tetrahydrofuran-2-carboxamide], the 50% inhibitory concentration (IC50) under setting [1] was less than 10 nM.
The same measure, in the same setting: with `COc1c(C2C(C(=O)Nc3ccnc(C(C)(C)O)c3)OC(C)(C(F)(F)F)C2C)ccc(F)c1F` (single isomer, unassigned) [Compound 48, 3-(3,4-difluoro-2-methoxy-phenyl)-N-[2-(1-hydroxy-1-methyl-ethyl)-4-pyridyl]-4,5-dimethyl-5-(trifluoromethyl)tetrahydrofuran-2-carboxamide] the figure was less than 10 nM.
Turning to `CNc1ccc(NC(=O)[C@@H]2O[C@@](C)(C(F)(F)F)[C@@H](C)[C@H]2c2ccc(F)c(F)c2OC)cn1` [Compound 524, (2R,3S,4S,5R)-3-(3,4-difluoro-2-methoxy-phenyl)-4,5-dimethyl-N-[6-(methylamino)-3-pyridyl]-5-(trifluoromethyl)tetrahydrofuran-2-carboxamide], under setting [1], the IC50 was in the range of 10 to 100 nM.
Same read-out and setting: with `COc1c([C@@H]2C[C@](C)(C(F)(F)F)O[C@H]2C(=O)Nc2cn(S(C)(=O)=O)nc2C)ccc(F)c1F` (stereo in doubt) [Compound 684, rel-(2R,3S,5R)-3-(3,4-difluoro-2-methoxyphenyl)-5-methyl-N-(3-methyl-1-(methylsulfonyl)-1H-pyrazol-4-yl)-5-(trifluoromethyl)tetrahydrofuran-2-carboxamide] the figure was less than 10 nM; with `COc1c([C@H]2[C@H](C(=O)Nc3ccnc(C(CO)N(C)C)c3)O[C@@](C)(C(F)(F)F)[C@H]2C)ccc(F)c1F` (single isomer, unassigned) [Compound 368], less than 10 nM; with `COc1c([C@H]2[C@H](C(=O)Nc3ccc(-c4nc(C)no4)nc3)O[C@@](C)(C(F)(F)F)[C@H]2C)ccc(F)c1F` [Compound 393, (2R,3S,4S,5R)-3-(3,4-difluoro-2-methoxyphenyl)-4,5-dimethyl-N-(6-(3-methyl-1,2,4-oxadiazol-5-yl)pyridin-3-yl)-5-(trifluoromethyl)-tetrahydrofuran-2-carboxamide], 100 to 1000 nM.
Consider `COc1c([C@@H]2[C@@H](C(=O)Nc3cncc(S(=O)(=O)N(C)C)c3)O[C@](C)(C(F)(F)F)[C@@H]2C)ccc(F)c1F` (stereo in doubt) [Compound 452, rel-(2S,3R,4R,5S)-3-(3,4-difluoro-2-methoxyphenyl)-N-(5-(N,N-dimethylsulfamoyl)pyridin-3-yl)-4,5-dimethyl-5-(trifluoromethyl)tetrahydrofuran-2-carboxamide], for which the IC50 under setting [1] was no less than 1000 nM.
Take `COc1c([C@H]2C[C@@](C)(C(F)(F)F)O[C@@H]2C(=O)Nc2ccnc([C@H](O)CO)c2)ccc(F)c1C` (single isomer, unassigned) [Compound 703]: the IC50 (in the presence of human serum (compound numbers followed by *), read-out: IC50 in the E-VIPR Assay, performed in the presence of human serum) is no less than 1000 nM.
Turning to `COc1c([C@H]2[C@H](C(=O)Nc3ccc4cnnn4c3)O[C@@](C)(C(F)(F)F)[C@H]2C)ccc(F)c1C(F)F` (stereo in doubt) [Compound 161, rel-(2R,3S,4S,5R)—N-([1,2,3]triazolo[1,5-a]pyridin-6-yl)-3-(3-(difluoromethyl)-4-fluoro-2-methoxyphenyl)-4,5-dimethyl-5-(trifluoromethyl)tetrahydrofuran-2-carboxamide], the half-maximal inhibitory concentration (IC50) under setting [1] was less than 10 nM.
Same read-out and setting: with `CC(C)Oc1c(C2C(C(=O)Nc3cc(S(C)(=O)=O)ccn3)OC(C)(C(F)(F)F)C2C)ccc(F)c1F` (stereo not shown) [Compound 116, 3-(3,4-difluoro-2-isopropoxy-phenyl)-4,5-dimethyl-N-(4-methylsulfonyl-2-pyridyl)-5-(trifluoromethyl)tetrahydrofuran-2-carboxamide] the figure was 100 to 1000 nM; with `COc1c(C2C(C(=O)Nc3ccnc(C(O)CO)c3)OC(C)(C(F)(F)F)C2C)ccc(F)c1F` (single isomer, unassigned) [Compound 43, 3-(3,4-difluoro-2-methoxy-phenyl)-N-[2-(1,2-dihydroxyethyl)-4-pyridyl]-4,5-dimethyl-5-(trifluoromethyl)tetrahydrofuran-2-carboxamide], no less than 1000 nM.
Still for that read-out and setting: for `COc1c(C2C(C(=O)Nc3ccc(C(N)=O)nc3)OC(C)(C(F)(F)F)C2C)ccc(C(F)F)c1F` (stereo not shown) [Compound 159, 5-[[3-[4-(difluoromethyl)-3-fluoro-2-methoxy-phenyl]-4,5-dimethyl-5-(trifluoromethyl)tetrahydrofuran-2-carbonyl]amino]pyridine-2-carboxamide] the value was no less than 1000 nM.
For `Cc1cn(C)c(COc2c([C@H]3[C@H](C(=O)Nc4cccnc4)O[C@@](C)(C(F)(F)F)[C@H]3C)ccc(F)c2F)n1` [Compound 650, (2R,3S,4S,5R)-3-(2-((1,4-dimethyl-1H-imidazol-2-yl)methoxy)-3,4-difluorophenyl)-4,5-dimethyl-N-(pyridin-3-yl)-5-(trifluoromethyl)tetrahydrofuran-2-carboxamide], under setting [1], the 50% inhibitory concentration (IC50) is 10 to 100 nM.
As for `C[C@H]1[C@@H](c2ccc(F)c(F)c2OCCO)[C@H](C(=O)Nc2cnn(C)c(=O)c2)O[C@@]1(C)C(F)(F)F` [Compound 568, (2R,3S,4S,5R)-3-(3,4-difluoro-2-(2-hydroxyethoxy)phenyl)-4,5-dimethyl-N-(1-methyl-6-oxo-1,6-dihydropyridazin-4-yl)-5-(trifluoromethyl)tetrahydrofuran-2-carboxamide], the IC50 under setting [1] is 10 to 100 nM.
As for `COC(=O)COc1c([C@H]2[C@H](C(=O)Nc3cn(C(F)F)nc3C)O[C@@](C)(C(F)(F)F)[C@H]2C)ccc(F)c1F` [Compound 602, methyl 2-[6-[(2R,3S,4S,5R)-2-[[1-(difluoromethyl)-3-methyl-pyrazol-4-yl]carbamoyl]-4,5-dimethyl-5-(trifluoromethyl)tetrahydrofuran-3-yl]-2,3-difluoro-phenoxy]acetate], under setting [1], the half-inhibitory concentration (IC50) was less than 10 nM.
As for `COc1c([C@H]2[C@H](C(=O)Nc3ccc(C#N)nc3)O[C@@](C)(C(F)(F)F)[C@H]2C)ccc(F)c1F` [Compound 192, (2R,3S,4S,5R)-N-(6-cyanopyridin-3-yl)-3-(3,4-difluoro-2-methoxyphenyl)-4,5-dimethyl-5-(trifluoromethyl)tetrahydrofuran-2-carboxamide], the IC50 under setting [1] was in the range of 10 to 100 nM.
Same read-out and setting: with `COc1c([C@H]2[C@H](C(=O)Nc3cc(C(N)C(C)(C)O)ncc3F)O[C@@](C)(C(F)(F)F)[C@H]2C)ccc(F)c1F` (single isomer, unassigned) [Compound 428, rel-(2R*,3S*,4S*,5R*)-N-(2-(1-amino-2-hydroxy-2-methylpropyl)-5-fluoropyridin-4-yl)-3-(3,4-difluoro-2-methoxyphenyl)-4,5-dimethyl-5-(trifluoromethyl)-tetrahydrofuran-2-carboxamide] the figure was less than 10 nM; with `COc1c([C@@H]2[C@@H](C(=O)Nc3ccc(C(=O)O)nc3)O[C@](C)(C(F)(F)F)[C@@H]2C)ccc(F)c1C(F)F` (single isomer, unassigned) [Compound 177], no less than 1000 nM.

By IC50 is commonly meant the midpoint of a concentration-inhibition curve.
